The values that follow come from US8093050B2, “mTOR inhibtors and mTOR signaling pathway inhibitors induce differentiation of human embryonic stem cells into the osteoblastic lineage” (Korea Research Institute of Bioscience and Biotechnology, priority 2007, dated 2012).

Data set [1] concerns human embryonic stem cells. Kind of data set: RT-PCR of osteoblast-specific genes, adhesion culture (FIG. 5). The class given is cell-based. To be noted: for expression of osteoblast-specific genes: 10 μM of LY29400, 1 μM of an AKT inhibitor, or rapamycin; for expression level of osteoblastic markers: human embryonic stem cells, LY294002, AKT inhibitor, or 20 nM rapamycin for 5 days. Here is the method: For osteogenic differentiation by adhesion culturing, the human embryonic stem cells obtained in Example 1, after passage, were cultured in the culture medium of Example 1 for 2 days, and then in a culture medium, free of recombinant human FGF basic, […], 0.01˜50 μM LY294002, 0.01˜20 μM AKT inhibitor, or conventional osteogenic supplements (10 mM β-glycerophosphate, 0.1 mM Dexamethasone, 0.1 mM L-ascorbic acid) for […], with daily replacement with a fresh embryonic stem cell culture medium (FIG. 2A).
(§1) The differentiation of human embryonic stem cells into osteoblasts in Example 3 was examined by detecting the expression of osteoblast-specific genes through RT-PCR and quantitative real-time PCR. For this, after treatment or non-treatment with rapamycin, LY294002, an AKT inhibitor or osteogenic supplements (10 mM β-glycerophosphate, 0.1 mM Dexamethasone, and 0.1 mM L-ascorbic acid), cells were collected according to differentiation stages and subjected to total RNA isolation using a TRIzol reagent (Invitrogen, USA). The RNA was used as a template to synthesize cDNA with a oligo(dT) primer in the presence of a Superscript II reverse transcriptase, followed by PCR with various primers listed in Table 1, below.
First, a description is given of the adhesion culture method. […] Afterwards, the human embryonic stem cells are induced to differentiate into osteoblasts by being cultured for five days in a medium that is the same except that it is free of recombinant human FGF basic and is supplemented with LY294002, an AKT inhibitor, rapamycin, and/or conventional osteogenic supplements (10 mM 3-glycerophosphate, 0.1 mM Dexamethasone, and 0.1 mM L-ascorbic acid) (Stage II).

Data set [2] relates to human embryonic stem cell-derived embryoid bodies. Kind of data set: RT-PCR of osteoblast-specific genes, embryoid body formation method (FIG. 6). Type of data set: cell-based. As to conditions: for expression level of osteoblastic markers / expression level of osteoblast-specific genes compared to untreated control: embryoid bodies; for expression level of osteoblastic markers: 20 nM rapamycin for three weeks; for expression level of osteoblast-specific genes compared to untreated control: LY294002 (0-50 μM), AKT inhibitor (0-20 μM), or rapamycin (0-200 nM) for 1~3 weeks; for expression levels of osteoblast-specific genes: embryoid body formation method. Here is the method: After being collected as a suspension, the cell clumps were transferred into bacterial cell culture dishes and incubated for 5 days in a suspension culture manner. Afterwards, the embryoid bodies thus obtained were transferred to Matrigel (BD biosciences, USA)-coated culture dishes, free of human recombinant FGF basic, containing 0.1˜200 nM rapamycin, […], or osteogenic supplements (10 mM β-glycerophosphate, 0.1 mM Dexamethasone, and 0.1 mM L-ascorbic acid) for three weeks in an adhesion culture manner to achieve osteogenic differentiation (FIG. 3A).
as §1
(§2) Osteogenic differentiation using the embryoid body formation method is schematically illustrated in FIG. 3A. Initially, human embryonic stem cells are cultured for one day in the same manner as in the adhesion culture method, after which the colonies thus grown are sliced into cell clumps using a tool made from a glass pipette.

Data set [3] has the same test system. Kind of data set: Quantitative real-time PCR of osteoblast-specific genes (FIGS. 7, 8, 11). Type of data set: cell-based. Here is the method: After being collected as a suspension, the cell clumps were transferred into bacterial cell culture dishes and incubated for 5 days in a suspension culture manner. Afterwards, the embryoid bodies thus obtained were transferred to Matrigel (BD biosciences, USA)-coated culture dishes, free of human recombinant FGF basic, containing 0.1˜200 nM rapamycin, 0.01˜50 μM LY294002, 0.01˜20 μM AKT inhibitor, or osteogenic supplements (10 mM β-glycerophosphate, 0.1 mM Dexamethasone, and 0.1 mM L-ascorbic acid) for three weeks in an adhesion culture manner to achieve osteogenic differentiation (FIG. 3A).
as §1, §2

The test system is the same in data set [4]. In words: Analysis for mineralization by Alizarin-Red S staining. The class given is cell-based. Here is the method: The cells obtained using the three differentiation inducing techniques described in Example 3 were analyzed for mineralization using an Alizarin-Red S staining method. After aspirating the culture medium, the cells on the culture dish were washed with PBS and fixed at 4° C. for 1 hr with 70% ethanol. Thereafter, the cells were stained with a 40 mM alizarin red (AR) solution (pH 4.2) for 10 min, washed with distilled water, and observed for mineral nodule formation under an optical microscope before they were completely dried. […] A culture period of three weeks was required to maximize the number of Alizarin Red-positive cells upon osteogenic differentiation with rapamycin alone.

Data set [5] has the same test system. Kind of data set: Immunofluorescent staining for BSP and osteocalcin. The class given is cell-based. As for the experimental part: The osteogenic differentiation of the cells obtained using the three differentiation inducing techniques described in Example was identified by immunofluorescent staining. First, the cells were placed on a 1 cm^2 cover glass and the medium was aspirated. Following washing with PBS, the cells were incubated with a fixing solution (citrate-acetone-formaldehyde) for about 30 sec at room temperature and washed with distilled water for 45 sec. Next, treatment with 3% bovine serum albumin/phosphate buffered saline (BSA/PBS) for 30 min was followed by incubation with a primary antibody for 12 hrs. Then, the cells were washed three times for 15 min in 0.1% Triton X-100/PBS before labeling by incubation with an Alexa488-conjugated secondary antibody (Molecular probes, USA) for 30 min at room temperature. The cells were washed again three times in 0.1% Triton X-100/PBS for 15 min each time for observation under a fluorescent microscope (Olympus, Japan). In order to identify osteogenic differentiation, anti-bone sialoprotein (anti-BSP, Chemicon; 1:100), and anti-osteocalcin (R&D Systems; 1:500) were used for immunofluorescence.

For data set [6], the system named is human embryonic stem cells. Kind of data set: Cytotoxicity in differentiation culture. The class given is cell-based. As to conditions: for cytotoxicity: 10 μM of LY29400, 1 μM of an AKT inhibitor, or 220 nM of rapamycin.
The subject of the next data set is PI3K. As to conditions: cited from earlier work.
The subject of data set [7] is PI4K, an EGR receptor, a PDGF receptor, an insulin receptor, an MAP kinase, an S6 kinase. To be noted: cited from earlier work.
[8] abbreviates: osteoblasts differentiated from embryoid bodies, FIG. 6.
The mark [9] stands for this setting: embryoid bodies, one week of differentiation, FIG. 7.
The mark [10] stands for this setting: two weeks of differentiation culture, FIG. 7.

Each structure is given as a SMILES string. Entries after “also recorded” stand apart in the source; their conditions may differ.

Consider `CO[C@H]1C[C@@H]2CC[C@@H](C)[C@@](O)(O2)C(=O)C(=O)N2CCCC[C@H]2C(=O)O[C@H]([C@H](C)C[C@@H]2CC[C@@H](O)[C@H](OC)C2)CC(=O)[C@H](C)/C=C(\C)[C@@H](O)[C@@H](OC)C(=O)[C@H](C)C[C@H](C)/C=C/C=C/C=C/1C` [rapamycin], for which the “expression of osteoblast-specific genes, dose comparison” value in data set [1] (20 nM versus 10 nM of rapamycin) is “greater levels in the presence of 20 nM than 10 nM”. The “expression levels of Osteocalcin and Osteonectin, dose comparison” value in data set [1] (20 nM versus 10 nM rapamycin, FIG. 5) is “higher at a dose of 20 nM than 10 nM”. Further, in data set [1], the “expression of osteoblast-specific genes” value was “efficiently expressed” and the “expression level of osteoblastic markers” value is on record as “increase in expression level”. In data set [1] (two cell lines, adhesion culture, FIG. 5), the “expression of osterix, BMP2, and osteonectin genes” value is on record as “expressed in both cell lines, but in different patterns”. For the same molecule, the “expression of osteoblastic markers Cbfa-1, osteocalcin, and osteoprotegerin” value in data set [1] (two independently established cell lines, adhesion culture, compared to an undifferentiated control, FIG. 5) was “expressed; also recorded: distinctively higher levels”. In data set [2], the “expression level of osteoblastic markers” value is on record as “increase in expression level” and the “expression level of osteoblast-specific genes compared to untreated control” value (“expression level … compared to untreated control” below) was “increase in the expression level”. The “expression levels of osteoblast-specific genes” value in data set [2] (FIG. 6) was “increase the expression levels”. In addition, the “osteogenic induction activity among the three compounds” value in data set [2] (even at low doses, FIG. 6) is “most potent induction activity”. Also, the “induction of embryoid bodies to differentiate into osteoblasts relative to LY294002 and AKT inhibitor” value in data set [2] (osteoblastic markers, FIG. 6) is given as “more effectively induce”. In addition, in data set [2] (setting [8]), the “amounts of marker genes expressed relative to LY294002 or an AKT inhibitor” value is “as great as or greater than”; the “diversity of expressed marker genes (BMP2, osteocalcin, Cbfa-2, osterix, osteoprotegerin, GATA2, CMP)” value is listed as “highest diversity”; the “expression of osterix and osteoprotegerin” value is “expressed at high levels”. Further, the “osteogenic differentiation activity relative to conventional osteogenic supplements (cell morphology, expression level of osteoblastic markers)” value in data set [3] (FIGS. 2, 7 and 8) is on record as “as good as or better than”. The “expression level of osterix, BMP2, BMP4, α1 type I collagen, osteocalcin, osteoprotegerin, osteonectin, and osteopontin” value in data set [3] (after three weeks of differentiation culture, FIG. 8) is given as “continued to increase in expression level”. Besides, in data set [3] (both human embryonic stem cell lines, after three weeks of differentiation culture), the “expression level of Cbfa1” value was “decreased in the expression level”. Further, the “expression levels of osterix, BMP4, α1 type I collagen, osteoprotegerin, and osteopontin” value in data set [3] (both human embryonic stem cell lines, three weeks of differentiation culture) is given as “similarly increased”. Besides, in data set [3] (setting [9]), the “expression of BMP2 increased” value is recorded as 1.38 fold, the “expression of BSP increased” value was found to be 6.54 fold, the “expression of Cbfa1 increased” value worked out at 3.24 fold and the “expression of osteocalcin increased” value is 1.84 fold. The “expression of osteopontin increased” value in data set [3] (setting [9]) is 2.89 fold. Moreover, the “expression level of osteoblastic markers” value in data set [3] (embryoid bodies, one week of incubation with rapamycin, FIG. 7) was “increase in expression level”. Further, in data set [3] (setting [10]), the “expression level of BMP2 increased” value worked out at 1.34 fold, the “expression level of BMP4 increased” value is 1.18 fold, the “expression level of BSP increased” value turned out to be 1.63 fold and the “expression level of Cbfa-1 increased” value stood at 2.11 fold. Besides, in data set [3] (setting [10]), the “expression level of osteocalcin increased” value turned out to be 1.61 fold, the “expression level of osteonectin increased” value is on record as 1.94 fold, the “expression level of osteopontin increased” value was determined as 5.81 fold and the “expression level of osteoprotegerin increased” value was determined as 2.18 fold. In addition, in data set [3] (setting [10]), the “expression level of osterix increased” value worked out at 1.59 fold and the “expression level of α1 type I collagen increased” value was found to be 1.35 fold. In addition, the “Alizarin-Red staining of differentiated cells” value in data set [4] (cells induced to differentiate, FIG. 10) is recorded as “positively stained”. Besides, in data set [4] (embryoid bodies incubated with rapamycin), the “incubation needed to obtain a mature osteoblast phenotype” value is “additional three weeks”. Besides, the “differentiation into mature osteoblasts” value in data set [4] (embryoid bodies, 20 nM rapamycin for three weeks) was “most efficient differentiation”. Further, the “Alizarin Red S staining” value in data set [4] (embryoid bodies, three weeks, 20 nM rapamycin, FIG. 10) was “positively stained”. For the same molecule, the “culture period required to maximize the number of Alizarin Red-positive cells” value in data set [4] (osteogenic differentiation with rapamycin alone) is given as “three weeks”. Besides, in data set [5] (FIG. 9), the “ability to induce osteogenic differentiation relative to conventional osteogenic supplements” value is “as good as or better than” and the “number of cells differentiated into osteoblasts (BSP or osteocalcin antibody) relative to conventional osteogenic supplements” value is given as “same or greater number”. For the same molecule, the “immunofluorescent staining with antibodies to BSP and osteocalcin” value in data set [5] (embryoid bodies, three weeks, 20 nM rapamycin) is reported as “positively stained”. Moreover, in data set [6] (20 nM of rapamycin added to a culture medium), the cytotoxic effects entry was “no cytotoxic effects”. For the same molecule, in data set [6], the cytotoxicity result is recorded as “without the occurrence of cytotoxicity”.

`CCCCCCCCCCCCCCCCCCOC[C@H](COC(=O)OC1C(O)C(O)C(O)C(CO)C1O)OC` (stereo partly drawn) [AKT inhibitor]: in data set [1], the “expression of osteoblast-specific genes” value is on record as “efficiently expressed” and the “expression level of osteoblastic markers” value is “increase in expression level”. Besides, in data set [2], the “expression level of osteoblastic markers” value is recorded as “increase in expression level” and the “expression level … compared to untreated control” value is reported as “increase in the expression level”. Besides, the “expression levels of osteoblast-specific genes” value in data set [2] (FIG. 6) is recorded as “increase the expression levels”. Moreover, the “expression of osterix and osteoprotegerin” value in data set [2] (setting [8]) is listed as “expressed at high levels”. Moreover, the cytotoxicity entry in data set [6] is “without the occurrence of cytotoxicity”.

Consider `O=c1cc(N2CCOCC2)oc2c(-c3ccccc3)cccc12` [LY294002], for which, in data set [1], the “expression of osteoblast-specific genes” value is listed as “efficiently expressed” and the “expression level of osteoblastic markers” value was “increase in expression level”. In data set [2], the “expression level of osteoblastic markers” value was “increase in expression level” and the “expression level … compared to untreated control” value is given as “increase in the expression level”. For the same molecule, the “expression levels of osteoblast-specific genes” value in data set [2] (FIG. 6) was “increase the expression levels”. Also, the “expression of osterix and osteoprotegerin” value in data set [2] (setting [8]) is “expressed at high levels”. Further, the cytotoxicity result in data set [6] is “without the occurrence of cytotoxicity”. In the data set on PI3K, the “inhibition of PI3K” value is recorded as “inhibits PI3K”. Also, the “inhibition of PI4K, an EGR receptor, a PDGF receptor, an insulin receptor, an MAP kinase, an S6 kinase” value in data set [7] is reported as “does not inhibit”.
